According to the kinase profiling compilation of Christmann-Franck et al. (2016):

What was measured:
Test in all cases: KINOMEscan competition binding
Details in all cases: compound 10.0 µM
PLK4 (human) = PLK4 (human) (UniProt O00444)
RPS6KA2 KD2 (human) = RPS6KA2 KD2 (human) (UniProt Q15349)
ROCK1 (human) = ROCK1 (human) (UniProt Q13464)
EPHA7 (human) = EPHA7 (human) (UniProt Q15375)
GSK3A (human) = GSK3A (human) (UniProt P49840)
STK4 (human) = STK4 (human) (UniProt Q13043)
EPHB4 (human) = EPHB4 (human) (UniProt P54760)
FGFR4 (human) = FGFR4 (human) (UniProt P22455)
STK32C (human) = STK32C (human) (UniProt Q86UX6)
[1] = biological target: TYK2 JH2 pseudokinase (human) (UniProt P29597)
PIK3C2G (human) = PIK3C2G (human) (UniProt O75747)
STK32A (human) = STK32A (human) (UniProt Q8WU08)
NTRK1 (human) = NTRK1 (human) (UniProt P04629)
SIK3 (human) = SIK3 (human) (UniProt Q9Y2K2)
NUAK2 (human) = NUAK2 (human) (UniProt Q9H093)
Sequence of NUAK2 (human) (Q9H093 whole entry, looked up): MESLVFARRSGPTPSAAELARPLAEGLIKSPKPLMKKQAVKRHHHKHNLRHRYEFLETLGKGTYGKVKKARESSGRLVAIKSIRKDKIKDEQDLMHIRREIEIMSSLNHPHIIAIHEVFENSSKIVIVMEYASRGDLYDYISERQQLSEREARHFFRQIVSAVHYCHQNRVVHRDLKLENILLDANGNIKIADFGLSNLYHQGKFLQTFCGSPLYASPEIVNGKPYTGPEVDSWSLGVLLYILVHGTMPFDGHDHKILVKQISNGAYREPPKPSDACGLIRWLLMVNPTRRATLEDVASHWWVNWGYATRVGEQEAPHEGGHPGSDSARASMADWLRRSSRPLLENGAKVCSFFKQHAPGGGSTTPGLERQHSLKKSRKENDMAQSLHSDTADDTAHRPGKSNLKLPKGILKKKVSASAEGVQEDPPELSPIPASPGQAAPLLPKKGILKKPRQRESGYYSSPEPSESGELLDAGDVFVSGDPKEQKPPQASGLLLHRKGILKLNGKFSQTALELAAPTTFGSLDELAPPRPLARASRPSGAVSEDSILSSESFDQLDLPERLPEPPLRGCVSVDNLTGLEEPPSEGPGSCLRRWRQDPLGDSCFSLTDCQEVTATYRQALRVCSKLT

BTK (human) = BTK (human) (UniProt Q06187)
PKN1 (human) = PKN1 (human) (UniProt Q16512)
ULK3 (human) = ULK3 (human) (UniProt Q6PHR2)
ABL2 (human) = ABL2 (human) (UniProt P42684)
HIPK3 (human) = HIPK3 (human) (UniProt Q9H422)
PTK2B (human) = PTK2B (human) (UniProt Q14289)
Sequence of PTK2B (human) (Q14289 whole entry, looked up): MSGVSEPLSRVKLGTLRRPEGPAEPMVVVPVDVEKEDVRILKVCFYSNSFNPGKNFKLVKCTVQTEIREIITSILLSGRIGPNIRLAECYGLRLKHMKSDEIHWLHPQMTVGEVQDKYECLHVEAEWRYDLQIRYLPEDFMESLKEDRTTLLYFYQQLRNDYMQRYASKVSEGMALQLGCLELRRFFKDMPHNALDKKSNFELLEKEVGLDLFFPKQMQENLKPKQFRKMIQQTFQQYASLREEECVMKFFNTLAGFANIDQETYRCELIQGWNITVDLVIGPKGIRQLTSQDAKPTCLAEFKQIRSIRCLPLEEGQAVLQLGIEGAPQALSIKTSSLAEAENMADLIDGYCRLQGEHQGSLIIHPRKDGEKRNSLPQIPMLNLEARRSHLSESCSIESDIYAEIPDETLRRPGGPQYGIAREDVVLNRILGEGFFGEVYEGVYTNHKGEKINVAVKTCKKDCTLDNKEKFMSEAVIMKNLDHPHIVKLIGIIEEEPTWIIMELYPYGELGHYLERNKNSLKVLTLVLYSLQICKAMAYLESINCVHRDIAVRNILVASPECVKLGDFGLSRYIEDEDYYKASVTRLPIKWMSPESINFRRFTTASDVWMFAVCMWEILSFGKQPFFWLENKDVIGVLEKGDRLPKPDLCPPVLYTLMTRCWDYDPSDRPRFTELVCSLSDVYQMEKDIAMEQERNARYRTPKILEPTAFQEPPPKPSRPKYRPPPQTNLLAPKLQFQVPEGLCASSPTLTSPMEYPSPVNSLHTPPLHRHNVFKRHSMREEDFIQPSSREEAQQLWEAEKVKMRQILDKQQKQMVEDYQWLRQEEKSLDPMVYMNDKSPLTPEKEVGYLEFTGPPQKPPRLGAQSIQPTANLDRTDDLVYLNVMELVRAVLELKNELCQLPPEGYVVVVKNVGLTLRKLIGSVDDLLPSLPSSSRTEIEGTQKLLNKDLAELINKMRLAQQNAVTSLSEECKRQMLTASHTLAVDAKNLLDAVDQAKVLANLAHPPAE

CAMK2D (human) = CAMK2D (human) (UniProt Q13557)
PKN3 (M.tuberculosis) = PKN3 (M.tuberculosis) (UniProt Q6P5Z2)
CLK4 (human) = CLK4 (human) (UniProt Q9HAZ1)
SRC (human) = SRC (human) (UniProt P12931)
MAP3K9 (human) = MAP3K9 (human) (UniProt P80192)
MARK1 (human) = MARK1 (human) (UniProt Q9P0L2)
AAK1 (human) = AAK1 (human) (UniProt Q2M2I8)
AKT3 (human) = AKT3 (human) (UniProt Q9Y243)
NTRK2 (human) = NTRK2 (human) (UniProt Q16620)
Sequence of NTRK2 (human) (Q16620 whole entry, looked up): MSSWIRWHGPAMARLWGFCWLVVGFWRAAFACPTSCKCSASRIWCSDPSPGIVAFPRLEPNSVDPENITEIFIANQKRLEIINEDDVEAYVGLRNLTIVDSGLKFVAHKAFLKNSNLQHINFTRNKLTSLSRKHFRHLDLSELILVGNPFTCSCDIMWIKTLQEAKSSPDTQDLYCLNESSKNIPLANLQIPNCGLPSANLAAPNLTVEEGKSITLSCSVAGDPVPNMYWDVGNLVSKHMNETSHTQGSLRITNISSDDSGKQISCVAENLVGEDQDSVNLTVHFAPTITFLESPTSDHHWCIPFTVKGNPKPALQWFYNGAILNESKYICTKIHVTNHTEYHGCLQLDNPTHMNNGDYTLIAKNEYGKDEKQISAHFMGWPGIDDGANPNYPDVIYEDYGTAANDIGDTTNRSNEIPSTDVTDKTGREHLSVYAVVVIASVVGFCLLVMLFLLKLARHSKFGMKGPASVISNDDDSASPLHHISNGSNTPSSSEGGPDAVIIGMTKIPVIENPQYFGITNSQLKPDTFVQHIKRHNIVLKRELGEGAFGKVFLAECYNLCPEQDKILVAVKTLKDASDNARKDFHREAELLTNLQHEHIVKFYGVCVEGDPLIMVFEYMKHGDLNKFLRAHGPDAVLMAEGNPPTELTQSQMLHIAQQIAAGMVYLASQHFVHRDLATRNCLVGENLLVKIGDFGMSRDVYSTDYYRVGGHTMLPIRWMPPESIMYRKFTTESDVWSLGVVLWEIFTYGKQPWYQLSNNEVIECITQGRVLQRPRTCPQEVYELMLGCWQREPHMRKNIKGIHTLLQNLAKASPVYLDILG

PTK2 (human) = PTK2 (human) (UniProt Q05397)
STK32B (human) = STK32B (human) (UniProt Q9NY57)
NLK (human) = NLK (human) (UniProt Q9UBE8)
YES1 (human) = YES1 (human) (UniProt P07947)
SRPK3 (human) = SRPK3 (human) (UniProt Q9UPE1)
PIK3CG (human) = PIK3CG (human) (UniProt P48736)
Sequence of PIK3CG (human) (P48736 whole entry, looked up): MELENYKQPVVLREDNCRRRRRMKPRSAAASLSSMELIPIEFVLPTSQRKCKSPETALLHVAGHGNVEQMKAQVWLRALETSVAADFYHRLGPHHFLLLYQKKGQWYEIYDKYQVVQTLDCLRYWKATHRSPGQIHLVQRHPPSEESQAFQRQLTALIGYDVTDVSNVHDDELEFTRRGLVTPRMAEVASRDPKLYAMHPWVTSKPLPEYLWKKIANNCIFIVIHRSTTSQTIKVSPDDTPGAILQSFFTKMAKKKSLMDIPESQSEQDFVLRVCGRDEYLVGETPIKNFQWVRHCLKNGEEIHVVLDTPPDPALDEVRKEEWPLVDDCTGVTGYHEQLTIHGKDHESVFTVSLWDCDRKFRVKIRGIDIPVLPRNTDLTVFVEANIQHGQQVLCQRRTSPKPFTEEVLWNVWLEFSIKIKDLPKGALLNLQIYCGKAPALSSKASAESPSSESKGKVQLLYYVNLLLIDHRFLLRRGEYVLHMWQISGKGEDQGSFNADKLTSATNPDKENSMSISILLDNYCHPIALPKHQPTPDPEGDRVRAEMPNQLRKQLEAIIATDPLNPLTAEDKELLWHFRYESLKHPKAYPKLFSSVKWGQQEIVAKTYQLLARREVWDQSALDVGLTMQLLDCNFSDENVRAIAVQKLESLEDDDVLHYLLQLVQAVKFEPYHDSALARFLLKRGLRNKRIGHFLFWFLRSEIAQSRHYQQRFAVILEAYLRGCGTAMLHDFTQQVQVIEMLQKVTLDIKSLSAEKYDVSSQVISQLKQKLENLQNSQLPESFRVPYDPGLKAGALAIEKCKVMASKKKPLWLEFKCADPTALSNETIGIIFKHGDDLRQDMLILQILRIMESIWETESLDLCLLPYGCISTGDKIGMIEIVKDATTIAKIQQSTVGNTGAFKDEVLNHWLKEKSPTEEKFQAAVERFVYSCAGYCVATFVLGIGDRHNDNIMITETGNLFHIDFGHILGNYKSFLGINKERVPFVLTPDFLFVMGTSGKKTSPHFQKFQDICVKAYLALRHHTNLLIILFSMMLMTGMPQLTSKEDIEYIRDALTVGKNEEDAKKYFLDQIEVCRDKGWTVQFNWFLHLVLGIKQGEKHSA

GRK7 (human) = GRK7 (human) (UniProt Q8WTQ7)
RAF1 (human) = RAF1 (human) (UniProt P04049)
MAP4K3 (human) = MAP4K3 (human) (UniProt Q8IVH8)

Sequence of PLK4 (human) (O00444 whole entry, looked up): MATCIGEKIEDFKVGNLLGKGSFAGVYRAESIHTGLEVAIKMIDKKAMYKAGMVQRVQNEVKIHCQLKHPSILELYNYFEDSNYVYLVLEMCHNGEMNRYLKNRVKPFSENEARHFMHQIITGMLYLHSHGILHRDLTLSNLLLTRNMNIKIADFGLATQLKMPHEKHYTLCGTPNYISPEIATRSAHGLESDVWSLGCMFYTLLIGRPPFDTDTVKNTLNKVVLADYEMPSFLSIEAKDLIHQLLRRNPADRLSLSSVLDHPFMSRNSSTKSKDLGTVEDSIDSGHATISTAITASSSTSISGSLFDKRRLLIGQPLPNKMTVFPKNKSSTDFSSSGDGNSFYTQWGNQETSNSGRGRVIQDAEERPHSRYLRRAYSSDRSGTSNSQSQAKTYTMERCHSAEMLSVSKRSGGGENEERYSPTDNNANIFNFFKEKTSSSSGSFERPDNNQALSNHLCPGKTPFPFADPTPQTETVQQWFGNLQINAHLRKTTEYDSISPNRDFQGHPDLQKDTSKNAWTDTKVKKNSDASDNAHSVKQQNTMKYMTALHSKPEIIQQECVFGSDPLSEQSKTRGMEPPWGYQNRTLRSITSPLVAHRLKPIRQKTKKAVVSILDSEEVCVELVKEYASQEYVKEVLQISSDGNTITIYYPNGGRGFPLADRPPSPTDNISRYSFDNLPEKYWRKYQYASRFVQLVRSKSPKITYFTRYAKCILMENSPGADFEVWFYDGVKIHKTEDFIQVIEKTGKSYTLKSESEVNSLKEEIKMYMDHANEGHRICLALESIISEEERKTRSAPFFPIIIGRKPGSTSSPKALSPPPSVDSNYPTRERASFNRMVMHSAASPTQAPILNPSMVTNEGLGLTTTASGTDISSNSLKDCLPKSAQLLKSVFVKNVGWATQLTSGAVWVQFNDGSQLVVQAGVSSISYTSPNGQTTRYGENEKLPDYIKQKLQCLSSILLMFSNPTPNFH
Sequence of GSK3A (human) (P49840 whole entry, looked up): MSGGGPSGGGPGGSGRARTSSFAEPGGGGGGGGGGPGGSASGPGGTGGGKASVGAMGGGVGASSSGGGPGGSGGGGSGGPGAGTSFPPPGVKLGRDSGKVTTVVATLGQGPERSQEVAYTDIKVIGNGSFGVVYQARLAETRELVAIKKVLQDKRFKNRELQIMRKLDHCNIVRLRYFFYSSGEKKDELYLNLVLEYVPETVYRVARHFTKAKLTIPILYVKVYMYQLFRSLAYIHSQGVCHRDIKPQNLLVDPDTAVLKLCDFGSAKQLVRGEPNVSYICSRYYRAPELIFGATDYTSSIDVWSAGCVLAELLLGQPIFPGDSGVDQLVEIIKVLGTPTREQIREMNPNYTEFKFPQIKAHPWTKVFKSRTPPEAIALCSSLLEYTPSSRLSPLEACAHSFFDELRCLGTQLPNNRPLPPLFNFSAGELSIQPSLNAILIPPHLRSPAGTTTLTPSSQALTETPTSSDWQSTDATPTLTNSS

CCCS(=O)(=O)Nc1ccc(F)c(C(=O)c2c[nH]c3ncc(Cl)cc23)c1F gave a kinase still bound, per cent of control (PLK4 (human)) of 27%, a kinase still bound, per cent of control (RPS6KA2 KD2 (human)) of 94% and a kinase still bound, per cent of control (ROCK1 (human)) of 77%. For the same compound, the kinase still bound, per cent of control (EPHA7 (human)) was 99%, the kinase still bound, per cent of control (GSK3A (human)) was 100% and the kinase still bound, per cent of control (STK4 (human)) was 38%. It also gave a kinase still bound, per cent of control (EPHB4 (human)) of 100%, a kinase still bound, per cent of control (FGFR4 (human)) of 100% and a kinase still bound, per cent of control (STK32C (human)) of 86%. The kinase still bound, per cent of control [1] was 100%, the kinase still bound, per cent of control (PIK3C2G (human)) was 55% and the kinase still bound, per cent of control (STK32A (human)) was 85%. The kinase still bound, per cent of control (NTRK1 (human)) was 100%, the kinase still bound, per cent of control (SIK3 (human)) was 100% and the kinase still bound, per cent of control (NUAK2 (human)) was 41%. The kinase still bound, per cent of control (BTK (human)) was 52%, the kinase still bound, per cent of control (PKN1 (human)) was 85% and the kinase still bound, per cent of control (ULK3 (human)) was 60%. For the same compound, the kinase still bound, per cent of control (ABL2 (human)) was 36%, the kinase still bound, per cent of control (HIPK3 (human)) was 46% and the kinase still bound, per cent of control (PTK2B (human)) was 83%. For the same compound, the kinase still bound, per cent of control (CAMK2D (human)) was 99%, the kinase still bound, per cent of control (PKN3 (M.tuberculosis)) was 46% and the kinase still bound, per cent of control (CLK4 (human)) was 51%. For the same compound, the kinase still bound, per cent of control (SRC (human)) was 9.2%, the kinase still bound, per cent of control (MAP3K9 (human)) was 94% and the kinase still bound, per cent of control (MARK1 (human)) was 74%. For the same compound, the kinase still bound, per cent of control (AAK1 (human)) was 84%, the kinase still bound, per cent of control (AKT3 (human)) was 100% and the kinase still bound, per cent of control (NTRK2 (human)) was 82%. For the same compound, the kinase still bound, per cent of control (PTK2 (human)) was 51%, the kinase still bound, per cent of control (STK32B (human)) was 100% and the kinase still bound, per cent of control (NLK (human)) was 100%. The kinase still bound, per cent of control (YES1 (human)) was 18%, the kinase still bound, per cent of control (SRPK3 (human)) was 100% and the kinase still bound, per cent of control (PIK3CG (human)) was 83%. It also gave a kinase still bound, per cent of control (GRK7 (human)) of 76%, a kinase still bound, per cent of control (RAF1 (human)) of 3.4% and a kinase still bound, per cent of control (MAP4K3 (human)) of 91%.

Work on Cc1cn(-c2cc(C(=O)Nc3ccc(C)c(NC(=O)c4ccno4)c3)cc(C(F)(F)F)c2)cn1 yielded a kinase still bound, per cent of control (PLK4 (human)) of 100%, a kinase still bound, per cent of control (RPS6KA2 KD2 (human)) of 100% and a kinase still bound, per cent of control (ROCK1 (human)) of 100%. It also gave a kinase still bound, per cent of control (EPHA7 (human)) of 100%, a kinase still bound, per cent of control (GSK3A (human)) of 100% and a kinase still bound, per cent of control (STK4 (human)) of 100%. The kinase still bound, per cent of control (EPHB4 (human)) was 15%, the kinase still bound, per cent of control (FGFR4 (human)) was 100% and the kinase still bound, per cent of control (STK32C (human)) was 100%. The kinase still bound, per cent of control [1] was 100%, the kinase still bound, per cent of control (PIK3C2G (human)) was 100% and the kinase still bound, per cent of control (NTRK1 (human)) was 100%. For the same compound, the kinase still bound, per cent of control (SIK3 (human)) was 100%, the kinase still bound, per cent of control (NUAK2 (human)) was 100% and the kinase still bound, per cent of control (BTK (human)) was 100%. For the same compound, the kinase still bound, per cent of control (PKN1 (human)) was 100%, the kinase still bound, per cent of control (ULK3 (human)) was 100% and the kinase still bound, per cent of control (ABL2 (human)) was 1.8%. The kinase still bound, per cent of control (HIPK3 (human)) was 100%, the kinase still bound, per cent of control (PTK2B (human)) was 100% and the kinase still bound, per cent of control (CAMK2D (human)) was 100%. For the same compound, the kinase still bound, per cent of control (CLK4 (human)) was 100%, the kinase still bound, per cent of control (SRC (human)) was 2.4% and the kinase still bound, per cent of control (MAP3K9 (human)) was 100%. It also gave a kinase still bound, per cent of control (MARK1 (human)) of 100%, a kinase still bound, per cent of control (AAK1 (human)) of 100% and a kinase still bound, per cent of control (AKT3 (human)) of 100%. The kinase still bound, per cent of control (NTRK2 (human)) was 100%, the kinase still bound, per cent of control (PTK2 (human)) was 100% and the kinase still bound, per cent of control (STK32B (human)) was 100%. For the same compound, the kinase still bound, per cent of control (NLK (human)) was 100%, the kinase still bound, per cent of control (YES1 (human)) was 13% and the kinase still bound, per cent of control (SRPK3 (human)) was 100%. It also gave a kinase still bound, per cent of control (PIK3CG (human)) of 100%, a kinase still bound, per cent of control (GRK7 (human)) of 100% and a kinase still bound, per cent of control (RAF1 (human)) of 6%. For the same compound, the kinase still bound, per cent of control (MAP4K3 (human)) was 100%.

For CCOc1cc(N2CCC(O)CC2)ccc1Nc1ncc2c(n1)N(C)c1ccccc1C(=O)N2C, the kinase still bound, per cent of control (PLK4 (human)) was 2.8%, the kinase still bound, per cent of control (RPS6KA2 KD2 (human)) was 100% and the kinase still bound, per cent of control (ROCK1 (human)) was 100%. The kinase still bound, per cent of control (EPHA7 (human)) was 100%, the kinase still bound, per cent of control (GSK3A (human)) was 100% and the kinase still bound, per cent of control (STK4 (human)) was 100%. The kinase still bound, per cent of control (EPHB4 (human)) was 100%, the kinase still bound, per cent of control (FGFR4 (human)) was 100% and the kinase still bound, per cent of control (STK32C (human)) was 100%. It also gave a kinase still bound, per cent of control [1] of 100%, a kinase still bound, per cent of control (PIK3C2G (human)) of 100% and a kinase still bound, per cent of control (NTRK1 (human)) of 100%. For the same compound, the kinase still bound, per cent of control (SIK3 (human)) was 100%, the kinase still bound, per cent of control (NUAK2 (human)) was 100% and the kinase still bound, per cent of control (BTK (human)) was 100%. It also gave a kinase still bound, per cent of control (PKN1 (human)) of 100%, a kinase still bound, per cent of control (ULK3 (human)) of 100% and a kinase still bound, per cent of control (ABL2 (human)) of 100%. For the same compound, the kinase still bound, per cent of control (HIPK3 (human)) was 100%, the kinase still bound, per cent of control (PTK2B (human)) was 100% and the kinase still bound, per cent of control (CAMK2D (human)) was 100%. It also gave a kinase still bound, per cent of control (CLK4 (human)) of 100%, a kinase still bound, per cent of control (SRC (human)) of 100% and a kinase still bound, per cent of control (MAP3K9 (human)) of 100%. It also gave a kinase still bound, per cent of control (MARK1 (human)) of 100%, a kinase still bound, per cent of control (AAK1 (human)) of 100% and a kinase still bound, per cent of control (AKT3 (human)) of 100%. The kinase still bound, per cent of control (NTRK2 (human)) was 100%, the kinase still bound, per cent of control (PTK2 (human)) was 100% and the kinase still bound, per cent of control (STK32B (human)) was 100%. It also gave a kinase still bound, per cent of control (NLK (human)) of 100%, a kinase still bound, per cent of control (YES1 (human)) of 100% and a kinase still bound, per cent of control (SRPK3 (human)) of 100%. It also gave a kinase still bound, per cent of control (PIK3CG (human)) of 100%, a kinase still bound, per cent of control (GRK7 (human)) of 100% and a kinase still bound, per cent of control (RAF1 (human)) of 100%. For the same compound, the kinase still bound, per cent of control (MAP4K3 (human)) was 100%.
